Data: patent US8173169B2, “Formulation and process for the preparation of modafinil” (Hikma Pharmaceuticals, priority 2007, dated 2012)
Values joined by “and” are separate entries in the source; they are usually repeats but may differ in a detail not shown here. Equal values may be shown once.

What was measured:
Assay type in all cases: physicochemical
[1] = Dissolution rates of modafinil prepared by different formulation processes
Excerpt: The choice of excipient is also shown to have a significant influence on the dissolution profiles.

[2] = Particle size analysis by laser diffraction (Malvern Mastersizer 2000)
Excerpt: As is appreciated by those in the art, different measurement instruments may provide different measurements of the same particles. […] Applicants have therefore performed modafinil particle size analysis using a Malvern Mastersizer 2000 (Worcestershire, UK), and a Coulter Counter (Hiac/Royco instruments, USA) and mechanical sieving methods.
Malvern Mastersizer utilizes the principle of laser diffraction particle sizing. The principle involved is that during the laser diffraction measurement, particles are passed through a focused laser beam and these particles scatter light at an angle that is inversely proportional to their size. The angular intensity of the scattered light is then measured by a series of photosensitive detectors and the map of scattering intensity versus angle is the primary source of information used to calculate the particle size.
Particle size measurements using the Hiac/Royco were generated on Modafinil particles of the present invention suspended in saturated water. For Malvern laser sizing, Modafinil particles can either be suspended in sunflower oil or sized in the dry form.
(§1) Tables 1 and 2 summarize the particle size distribution of modafinil particles B#62605008s obtained by two different sizing methods. Values are reported in microns. The term d (0.1) denotes the diameter of the largest particle found in 10% of the particles sorted in increasing order. The other four terms refer to the diameter of the largest particle found in each 50%, 85%, 90% and 95% of the particles. The term SD denotes the standard deviation and is a measure of the spread of its values and the term RSD refers to the absolute value of the coefficient variation expressed as a percentage. In Table 2 the percentage by weight of particles retained on each mesh cut is reported.

[3] = Sieve analysis of particle size distribution; conditions: by weight retained
Excerpt: In using the Coulter Counter, particles suspended in a weak electrolyte solution are drawn through a small aperture, separating two electrodes between which an electric current flows. The voltage applied across the aperture creates a “sensing zone”. As particles pass through the aperture, they displace their own volume of electrolyte, momentarily increasing the impedance of the aperture. This change in impedance produces a pulse that is digitally processed in real time. The Coulter Principle states that the pulse is directly proportional to the tri-dimensional volume of the particle that produced it. […] Sieve sizing is one of the oldest methods used to determine particle size distributions. Samples of known weight are placed on the largest sieve in a stack of sieves of decreasing size. Upon shaking, sample fractions are caught on the respective sieve corresponding to the size of the particles.
Table 2 summarizes particle size distribution of Modafinil of the present invention measured by sieve size analysis.
as §1

[4] = single trials 1-3, Malvern Mastersizer 2000

SMILES: NC(=O)C[S+]([O-])C(c1ccccc1)c1ccccc1 (stereo not shown) [Modafinil particles, Modafinil]
- % Modafinil Dissolved ([1]; 5 mins): 1.80%
- % Modafinil Dissolved ([1]; 10 mins): 5.19%
- % Modafinil Dissolved ([1]; 15 mins): 9.73%
- % Modafinil Dissolved ([1]; 20 mins): 14.31%
- % Modafinil Dissolved ([1]; 30 mins): 23.19%
- % Modafinil Dissolved ([1]; 40 mins): 31.25%
- % Modafinil Dissolved ([1]; 60 mins): 44.09%
- % Modafinil Dissolved ([1]; 90 mins): 71.42%
- dissolution profile compared with PROVIGIL 200 ([1]; result in words): significantly slower

SMILES: NC(=O)C[S+]([O-])C(c1ccccc1)c1ccccc1 (stereo not shown) [Modafinil B# 62605008s, Modafinil]
- D (0.35) particle size (% undersize) ([2]; average of 3 trials): 267.3 microns
- d (0.1) particle size (% undersize) ([2]; average of 3 trials): 161.37 microns
- d (0.5) particle size (% undersize) ([2]; average of 3 trials): 322.59 microns
- d (0.85) particle size (% undersize) ([2]; average of 3 trials): 506.71 microns
- d (0.9) particle size (% undersize) ([2]; average of 3 trials): 557.46 microns
- d (0.95) particle size (% undersize) ([2]; average of 3 trials): 631.82 microns
- share of particles greater than 220 um ([2]; conclusion from two sizing methods (Tables 1 and 2)): at least 65%
- D (0.35) particle size (% undersize) [2, 4]: 273.94 microns and 266.93 microns and 261.04 microns
- d (0.1) particle size (% undersize) [2, 4]: 172.45 microns and 159.38 microns and 152.26 microns
- d (0.5) particle size (% undersize) [2, 4]: 328.58 microns and 322.53 microns and 316.66 microns
- d (0.85) particle size (% undersize) [2, 4]: 510.24 microns and 507.09 microns and 502.79 microns
- d (0.9) particle size (% undersize) [2, 4]: 561.92 microns and 558.30 microns and 552.16 microns
- d (0.95) particle size (% undersize) [2, 4]: 633.06 microns and 632.46 microns and 629.94 microns
- % Oversize ([3]; particle size range 0-150 μm): 3.51%
- % Oversize ([3]; particle size range 150-180 μm): 1.25%
- % Oversize ([3]; particle size range 180-250 μm): 7.02%
- % Oversize ([3]; particle size range 250-355 μm): 52.88%
- % Oversize ([3]; particle size range 355-425 μm): 17.04%
- % Oversize ([3]; particle size range 425-500 μm): 12.78%
- % Oversize ([3]; particle size range 500-600 μm): 5.26%
- % Oversize ([3]; particle size range 600-800 μm): 0.25%
- % Oversize ([3]; particle size range >800 μm): 0.00%
